Laboratory results taken from US5792765A, “Substituted oxazolidinones” (Bayer Aktiengesellschaft, priority 1996, dated 1998).
Values after ≈ are worked out from the molar mass of the structure shown.

These compounds were tested on Mycobacterium smegmatis DSM 43061 (assay: MIC by broth microdilution, rapidly growing mycobacteria). Conditions: Mycolicibacterium smegmatis, DSM43061; strain DSM 43061; inoculum 2.20E + 04 /ml; 37° C., 2-4 days.
Format: cell-based
Method: (§1) For rapidly growing mycobacteria the MIC determination was carried out following the broth microdilution method described by Swenson [cf. J. M. Swenson, C. Thomberry, U. A. Silcox, Rapidly growing mycobacteria. Testing of susceptibility to 34 antimicrobial agents by broth microdilution. Antimicrobial Agents and Chemotherapy Vol. 22, 186-192 (1982)]. A deviation from this was the brain-heart extract medium treated with 0.1% by volume of Tween 80.
(§2) The mycobacterial strains used were obtained from the DSM (German Collection of Microorganisms, Brunswick). They were incubated at 37° C. in a humid chamber.
(§3) The MIC values were read off after 2-4 days when the preparation-free controls had become turbid due to growth.

| SMILES | MIC |
| --- | --- |
| NNC(=O)c1ccncc1 [Isoniazide, reference compound] | 4 µg/mL |

Each compound was assayed on Mycobacterium smegmatis DSM 43078 in the same assay as above. Conditions: Mycolicibacterium smegmatis, DSM43078; strain DSM 43078; inoculum 4.20E + 04 /ml; 37° C., 2-4 days.
Format: cell-based
Method: as §1, §2, §3

| SMILES | MIC |
| --- | --- |
| NNC(=O)c1ccncc1 [Isoniazide, reference compound] | 2 µg/mL |

The compounds below were run on Mycoplasma pneumoniae strain PI 1428 (assay: MIC determination with Mycoplasma pneumoniae, serial microdilution). Conditions: PI1428, PPLO medium, anaerobic, 37° C., Alamar Blue.
Format: cell-based
Method: MIC determination with Mycoplasma pneumoniae
Mycoplasma pneumoniae strain PI 1428 was cultured under anaerobic conditions in PPLO medium, to which 1% glucose, 2.5% yeast extract, 20% horse serum (donor horse serum) and 0.002% Phenol Red were added. MIC determinations were carried out following the serial microdilution method in liquid medium described by ter Laak and coworkers (E. A. ter Laak, A. Pijpers, J. H. Noordergraaf, E. Schoevers, J. H. M. Verheijden: Comparison of Methods for in vitro Testing of Susceptibility of Porcine Mycoplasma Species to Antimicrobial Agents; Antimicrobial Agents and Chemotherapy, Vol. 35, 228-233 (1991)). At the time of the start of the colour change of the medium of the preparation-free control from red to yellow, 10% by volume of Alamar Blue was added. The incubation at 37° C. was continued for about 10 hours and the MIC defined as the value at which the medium having the smallest preparation concentration remained unchanged blue.

| SMILES | MIC |
| --- | --- |
| CNC(=S)NC[C@H]1CN(c2ccc3nc(SC)sc3c2)C(=O)O1 [Example 23] | 4 µg/mL (≈ 10.9 µM) |

The compounds below were run on Psdm. Bonn (assay: MIC by serial dilution on Iso-Sensitest Agar). Conditions: 20 h.
Format: cell-based
Method: (§4) The minimum inhibitory concentrations (MIC) were determined by serial dilution methods on Iso-Sensitest Agar (Oxoid). For each test substance, a number of agar plates were prepared which, with an in each case doubled dilution, contained decreasing concentrations of the active compound. The agar plates were inoculated with the multipoint inoculator (Denley). For inoculation, overnight cultures of the caustive organisms were used which had previously been diluted such that each inoculation point contained about 10^4 colony-forming particles. The inoculated agar plates were incubated at 37° C., and the microorganism growth was read off after about 20 hours. The MIC value (μg/ml) indicates the lowest active compound concentration at which no growth could be detected using the naked eye.

| SMILES | MIC |
| --- | --- |
| CCC(=S)NC[C@H]1CN(c2ccc3ccsc3c2)C(=O)O1 [Example 11] | > 64 µg/mL |

Same assay, conditions: Psdm. Bonn; 37° C., about 20 hours; read-out: MIC

| SMILES | MIC |
| --- | --- |
| CNC(=S)NC[C@H]1CN(c2ccc3nc(SC)sc3c2)C(=O)O1 [Example 23] | > 64 µg/mL |
| CSc1nc2ccc(N3C[C@H](CNC(C)=S)OC3=O)cc2s1 [Example 26] | > 64 µg/mL |
| CC(=S)NC[C@H]1CN(c2ccc3c(c2)sc(=O)n3C)C(=O)O1 [Example 42] | > 64 µg/mL |
| CC(=S)NC[C@H]1CN(c2cc3ccc(Cl)cc3s2)C(=O)O1 [Example 43] | > 64 µg/mL |

Each compound was assayed on Staph. 9TV (assay: MIC by serial dilution on Iso-Sensitest Agar). Conditions: 37° C., about 20 hours.
Format: cell-based
Method: as §4

| SMILES | MIC |
| --- | --- |
| CCC(=S)NC[C@H]1CN(c2ccc3ccsc3c2)C(=O)O1 [Example 11] | 0.25 µg/mL (≈ 0.78 µM) |
| CNC(=S)NC[C@H]1CN(c2ccc3nc(SC)sc3c2)C(=O)O1 [Example 23] | 0.25 µg/mL (≈ 0.678 µM) |
| CSc1nc2ccc(N3C[C@H](CNC(C)=S)OC3=O)cc2s1 [Example 26] | ≤ 0.125 µg/mL |
| CC(=S)NC[C@H]1CN(c2ccc3c(c2)sc(=O)n3C)C(=O)O1 [Example 42] | ≤ 0.125 µg/mL |
| CC(=S)NC[C@H]1CN(c2cc3ccc(Cl)cc3s2)C(=O)O1 [Example 43] | 0.5 µg/mL (≈ 1.47 µM) |

Each compound was assayed on Staph. 133 (assay: MIC by serial dilution on Iso-Sensitest Agar). Conditions: 37° C., about 20 hours.
Format: cell-based
Method: as §4

| SMILES | MIC |
| --- | --- |
| CCC(=S)NC[C@H]1CN(c2ccc3ccsc3c2)C(=O)O1 [Example 11] | 0.5 µg/mL (≈ 1.56 µM) |
| CNC(=S)NC[C@H]1CN(c2ccc3nc(SC)sc3c2)C(=O)O1 [Example 23] | 0.25 µg/mL (≈ 0.678 µM) |
| CSc1nc2ccc(N3C[C@H](CNC(C)=S)OC3=O)cc2s1 [Example 26] | < 0.125 µg/mL |
| CC(=S)NC[C@H]1CN(c2ccc3c(c2)sc(=O)n3C)C(=O)O1 [Example 42] | < 0.125 µg/mL |
| CC(=S)NC[C@H]1CN(c2cc3ccc(Cl)cc3s2)C(=O)O1 [Example 43] | 0.5 µg/mL (≈ 1.47 µM) |

Each compound was assayed on Staph. 25701 (assay: MIC by serial dilution on Iso-Sensitest Agar). Conditions: 37° C., about 20 hours.
Format: cell-based
Method: as §4

| SMILES | MIC |
| --- | --- |
| CCC(=S)NC[C@H]1CN(c2ccc3ccsc3c2)C(=O)O1 [Example 11] | 0.25 µg/mL (≈ 0.78 µM) |
| CNC(=S)NC[C@H]1CN(c2ccc3nc(SC)sc3c2)C(=O)O1 [Example 23] | 0.5 µg/mL (≈ 1.36 µM) |
| CSc1nc2ccc(N3C[C@H](CNC(C)=S)OC3=O)cc2s1 [Example 26] | 0.25 µg/mL (≈ 0.707 µM) |
| CC(=S)NC[C@H]1CN(c2ccc3c(c2)sc(=O)n3C)C(=O)O1 [Example 42] | > 0.125 µg/mL |
| CC(=S)NC[C@H]1CN(c2cc3ccc(Cl)cc3s2)C(=O)O1 [Example 43] | 0.5 µg/mL (≈ 1.47 µM) |

These compounds were tested on Klebs. 57 USA (assay: MIC by serial dilution on Iso-Sensitest Agar). Conditions: 20 h.
Format: cell-based
Method: as §4

| SMILES | MIC |
| --- | --- |
| CCC(=S)NC[C@H]1CN(c2ccc3ccsc3c2)C(=O)O1 [Example 11] | > 64 µg/mL |

Same assay, conditions: Klebs. 57 USA; 37° C., about 20 hours; read-out: MIC

| SMILES | MIC |
| --- | --- |
| CNC(=S)NC[C@H]1CN(c2ccc3nc(SC)sc3c2)C(=O)O1 [Example 23] | > 64 µg/mL |
| CSc1nc2ccc(N3C[C@H](CNC(C)=S)OC3=O)cc2s1 [Example 26] | > 64 µg/mL |
| CC(=S)NC[C@H]1CN(c2ccc3c(c2)sc(=O)n3C)C(=O)O1 [Example 42] | 64 µg/mL (≈ 190 µM) |
| CC(=S)NC[C@H]1CN(c2cc3ccc(Cl)cc3s2)C(=O)O1 [Example 43] | > 64 µg/mL |

Each compound was assayed on E. coli Neumann (assay: MIC by serial dilution on Iso-Sensitest Agar). Conditions: Escherichia coli, 20 h.
Format: cell-based
Method: as §4

| SMILES | MIC |
| --- | --- |
| CCC(=S)NC[C@H]1CN(c2ccc3ccsc3c2)C(=O)O1 [Example 11] | > 64 µg/mL |

Same assay, conditions: Escherichia coli; E. coli Neumann; 37° C., about 20 hours; read-out: MIC

| SMILES | MIC |
| --- | --- |
| CNC(=S)NC[C@H]1CN(c2ccc3nc(SC)sc3c2)C(=O)O1 [Example 23] | > 64 µg/mL |
| CSc1nc2ccc(N3C[C@H](CNC(C)=S)OC3=O)cc2s1 [Example 26] | > 64 µg/mL |
| CC(=S)NC[C@H]1CN(c2ccc3c(c2)sc(=O)n3C)C(=O)O1 [Example 42] | 64 µg/mL (≈ 190 µM) |
| CC(=S)NC[C@H]1CN(c2cc3ccc(Cl)cc3s2)C(=O)O1 [Example 43] | > 64 µg/mL |

What follows are compounds tested on Staph. 48N (assay: MIC by serial dilution on Iso-Sensitest Agar). Conditions: 37° C., about 20 hours.
Format: cell-based
Method: as §4

| SMILES | MIC |
| --- | --- |
| CCC(=S)NC[C@H]1CN(c2ccc3ccsc3c2)C(=O)O1 [Example 11] | 0.5 µg/mL (≈ 1.56 µM) |
| CNC(=S)NC[C@H]1CN(c2ccc3nc(SC)sc3c2)C(=O)O1 [Example 23] | 0.5 µg/mL (≈ 1.36 µM) |
| CSc1nc2ccc(N3C[C@H](CNC(C)=S)OC3=O)cc2s1 [Example 26] | 0.25 µg/mL (≈ 0.707 µM) |
| CC(=S)NC[C@H]1CN(c2ccc3c(c2)sc(=O)n3C)C(=O)O1 [Example 42] | > 0.125 µg/mL |
| CC(=S)NC[C@H]1CN(c2cc3ccc(Cl)cc3s2)C(=O)O1 [Example 43] | 0.5 µg/mL (≈ 1.47 µM) |
